Source: ChEMBL document CHEMBL4804286, “3-amino-4-(4-(4 (dimethylcarbamoyl) phenyl)-1,4-diazepan-1-yl) thieno [2,3-b] pyridine-2-carboxamide for use in cancer therapy and formulations comprising the same” (2020)
“And” between values parts separate entries of the source, which are not always exact repeats. Identical values can stand only once. The source made the active and inactive calls. No cut-off for these calls is given here.

Columns and labels:
[1] = target: G protein-coupled receptor kinase 3 (Homo sapiens) (UniProt P35626); assay: Inhibition of human GRK3 assessed as percent of control at 2000 nM by KINOMEscan assay relative to control; set-up: scale not given: the % may be the effect or the level left
[2] = target: Cyclin-dependent kinase 14 (Homo sapiens) (UniProt O94921); assay: Inhibition of human PFTK1 assessed as percent of control at 2000 nM by KINOMEscan assay relative to control; set-up: scale not given: the % may be the effect or the level left
[3] = system: Receptor-type tyrosine-protein kinase FLT3 (Homo sapiens), P36888 [UNDEFINED MUTATION]; assay: Inhibition of human FLT3 ITD/F691L double mutant assessed as percent of control at 2000 nM by KINOMEscan assay relative to control; set-up: scale not given: the % may be the effect or the level left
[4] = target: Tyrosine-protein kinase ITK/TSK (Homo sapiens) (UniProt Q08881); assay: Inhibition of human ITK assessed as percent of control at 2000 nM by KINOMEscan assay relative to control; set-up: scale not given: the % may be the effect or the level left
[5] = target: Serine/threonine-protein kinase 36 (Homo sapiens) (UniProt Q9NRP7); assay: Inhibition of human STK36 assessed as percent of control at 2000 nM by KINOMEscan assay relative to control; set-up: scale not given: the % may be the effect or the level left
[6] = target: Serine/threonine-protein kinase PLK4 (Homo sapiens) (UniProt O00444); assay: Inhibition of human PLK4 assessed as percent of control at 2000 nM by KINOMEscan assay relative to control; set-up: scale not given: the % may be the effect or the level left
[7] = target: Serine/threonine-protein kinase PRP4 homolog (Homo sapiens) (UniProt Q13523); assay: Inhibition of human PRP4 assessed as percent of control at 2000 nM by KINOMEscan assay relative to control; set-up: scale not given: the % may be the effect or the level left
[8] = system: Phosphatidylinositol 4,5-bisphosphate 3-kinase catalytic subunit alpha isoform (Homo sapiens), P42336 [H1047L]; assay: Inhibition of human PIK3CA H1047L mutant assessed as percent of control at 2000 nM by KINOMEscan assay relative to control; set-up: scale not given: the % may be the effect or the level left
[9] = system: ALK tyrosine kinase receptor (Homo sapiens), Q9UM73 [L1196M]; assay: Inhibition of human ALK L1196M mutant assessed as percent of control at 2000 nM by KINOMEscan assay relative to control; set-up: scale not given: the % may be the effect or the level left
[10] = target: Serine/threonine-protein kinase 32C (Homo sapiens) (UniProt Q86UX6); assay: Inhibition of human YANK3 assessed as percent of control at 2000 nM by KINOMEscan assay relative to control; set-up: scale not given: the % may be the effect or the level left
[11] = target: Phosphatidylinositol 4-phosphate 3-kinase C2 domain-containing subunit beta (Homo sapiens) (UniProt O00750); assay: Inhibition of human PIK3CB assessed as percent of control at 2000 nM by KINOMEscan assay relative to control; set-up: scale not given: the % may be the effect or the level left
[12] = system: Tyrosine-protein kinase ABL1 (Homo sapiens), P00519 [F317L]; assay: Inhibition of non-phosphorylated human ABL1 F317L mutant assessed as percent of control at 2000 nM by KINOMEscan assay relative to control; set-up: scale not given: the % may be the effect or the level left
[13] = target: Serine/threonine-protein kinase D1 (Homo sapiens) (UniProt Q15139); assay: Inhibition of human PRKD1 assessed as percent of control at 2000 nM by KINOMEscan assay relative to control; set-up: scale not given: the % may be the effect or the level left
[14] = target: Megakaryocyte-associated tyrosine-protein kinase (Homo sapiens) (UniProt P42679); assay: Inhibition of human CTK assessed as percent of control at 2000 nM by KINOMEscan assay relative to control; set-up: scale not given: the % may be the effect or the level left
[15] = target: Ephrin type-A receptor 6 (Homo sapiens) (UniProt Q9UF33); assay: Inhibition of human EPHA6 assessed as percent of control at 2000 nM by KINOMEscan assay relative to control; set-up: scale not given: the % may be the effect or the level left
[16] = system: eIF-2-alpha kinase GCN2 (Homo sapiens), Q9P2K8 [S808G]; assay: Inhibition of human GCN2 S808G mutant kinase domain 2 assessed as percent of control at 2000 nM by KINOMEscan assay relative to control; set-up: scale not given: the % may be the effect or the level left
[17] = target: Casein kinase I isoform epsilon (Homo sapiens) (UniProt P49674); assay: Inhibition of human CSNK1E assessed as percent of control at 2000 nM by KINOMEscan assay relative to control; set-up: scale not given: the % may be the effect or the level left; conditions: INHIBITOR
[18] = target: Serine/threonine-protein kinase PknB (Mycobacterium tuberculosis) (UniProt P9WI81); assay: Inhibition of Mycobacterium tuberculosis PKNB assessed as percent of control at 2000 nM by KINOMEscan assay relative to control; set-up: scale not given: the % may be the effect or the level left
[19] = target: Serine/threonine-protein kinase Sgk2 (Homo sapiens) (UniProt Q9HBY8); assay: Inhibition of human SGK2 assessed as percent of control at 2000 nM by KINOMEscan assay relative to control; set-up: scale not given: the % may be the effect or the level left
[20] = target: Serine/threonine-protein kinase NIM1 (Homo sapiens) (UniProt Q8IY84); assay: Inhibition of human NIM1 assessed as percent of control at 2000 nM by KINOMEscan assay relative to control; set-up: scale not given: the % may be the effect or the level left
[21] = target: Ribosomal protein S6 kinase beta-1 (Homo sapiens) (UniProt P23443); assay: Inhibition of human S6K1 assessed as percent of control at 2000 nM by KINOMEscan assay relative to control; set-up: scale not given: the % may be the effect or the level left
[22] = system: Epidermal growth factor receptor (Homo sapiens), P00533 [UNDEFINED MUTATION]; assay: Inhibition of human EGFR L747-E749del/A750P double mutant assessed as percent of control at 2000 nM by KINOMEscan assay relative to control; set-up: scale not given: the % may be the effect or the level left
[23] = target: Serine/threonine-protein kinase PAK 6 (Homo sapiens) (UniProt Q9NQU5); assay: Inhibition of human PAK6 assessed as percent of control at 2000 nM by KINOMEscan assay relative to control; set-up: scale not given: the % may be the effect or the level left
[24] = target: Mitogen-activated protein kinase 3 (Homo sapiens) (UniProt P27361); assay: Inhibition of human ERK1 assessed as percent of control at 2000 nM by KINOMEscan assay relative to control; set-up: scale not given: the % may be the effect or the level left
[25] = target: Muscle, skeletal receptor tyrosine-protein kinase (Homo sapiens) (UniProt O15146); assay: Inhibition of human MUSK assessed as percent of control at 2000 nM by KINOMEscan assay relative to control; set-up: scale not given: the % may be the effect or the level left
[26] = target: Ephrin type-A receptor 4 (Homo sapiens) (UniProt P54764); assay: Inhibition of human EPHA4 assessed as percent of control at 2000 nM by KINOMEscan assay relative to control; set-up: scale not given: the % may be the effect or the level left
[27] = target: Cyclin-dependent kinase 2 (Homo sapiens) (UniProt P24941); assay: Inhibition of human CDK2 assessed as percent of control at 2000 nM by KINOMEscan assay relative to control; set-up: scale not given: the % may be the effect or the level left
[28] = system: CWR22R; assay: Antitumor activity against human 22Rv1 cells expressing AR-V7 xenografted in male nude mouse assessed as suppression of tumor growth at 50 mg/kg, po administered daily for 15 days; format: functional, organism-based
[29] = target: Cyclin-dependent kinase-like 1 (Homo sapiens) (UniProt Q00532); assay: Inhibition of human CDKL1 assessed as percent of control at 2000 nM by KINOMEscan assay relative to control; set-up: scale not given: the % may be the effect or the level left
[30] = target: Ribosomal protein S6 kinase alpha-2 (Homo sapiens) (UniProt Q15349); assay: Inhibition of human N-terminal RSK3 kinase domain 1 assessed as percent of control at 2000 nM by KINOMEscan assay relative to control; set-up: scale not given: the % may be the effect or the level left

Sequence of Serine/threonine-protein kinase NIM1 (Homo sapiens) (Q8IY84 whole entry): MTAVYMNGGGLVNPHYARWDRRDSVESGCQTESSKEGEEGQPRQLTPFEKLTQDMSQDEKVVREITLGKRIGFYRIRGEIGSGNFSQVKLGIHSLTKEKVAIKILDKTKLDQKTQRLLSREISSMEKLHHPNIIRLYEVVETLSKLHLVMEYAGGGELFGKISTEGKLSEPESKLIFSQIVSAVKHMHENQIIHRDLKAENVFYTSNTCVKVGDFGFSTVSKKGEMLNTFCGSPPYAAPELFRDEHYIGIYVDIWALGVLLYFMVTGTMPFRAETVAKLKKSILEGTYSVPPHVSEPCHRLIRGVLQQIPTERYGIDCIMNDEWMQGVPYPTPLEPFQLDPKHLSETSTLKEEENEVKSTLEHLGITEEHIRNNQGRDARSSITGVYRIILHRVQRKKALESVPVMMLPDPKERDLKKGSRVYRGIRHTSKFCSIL
Sequence of Serine/threonine-protein kinase D1 (Homo sapiens) (Q15139 whole entry): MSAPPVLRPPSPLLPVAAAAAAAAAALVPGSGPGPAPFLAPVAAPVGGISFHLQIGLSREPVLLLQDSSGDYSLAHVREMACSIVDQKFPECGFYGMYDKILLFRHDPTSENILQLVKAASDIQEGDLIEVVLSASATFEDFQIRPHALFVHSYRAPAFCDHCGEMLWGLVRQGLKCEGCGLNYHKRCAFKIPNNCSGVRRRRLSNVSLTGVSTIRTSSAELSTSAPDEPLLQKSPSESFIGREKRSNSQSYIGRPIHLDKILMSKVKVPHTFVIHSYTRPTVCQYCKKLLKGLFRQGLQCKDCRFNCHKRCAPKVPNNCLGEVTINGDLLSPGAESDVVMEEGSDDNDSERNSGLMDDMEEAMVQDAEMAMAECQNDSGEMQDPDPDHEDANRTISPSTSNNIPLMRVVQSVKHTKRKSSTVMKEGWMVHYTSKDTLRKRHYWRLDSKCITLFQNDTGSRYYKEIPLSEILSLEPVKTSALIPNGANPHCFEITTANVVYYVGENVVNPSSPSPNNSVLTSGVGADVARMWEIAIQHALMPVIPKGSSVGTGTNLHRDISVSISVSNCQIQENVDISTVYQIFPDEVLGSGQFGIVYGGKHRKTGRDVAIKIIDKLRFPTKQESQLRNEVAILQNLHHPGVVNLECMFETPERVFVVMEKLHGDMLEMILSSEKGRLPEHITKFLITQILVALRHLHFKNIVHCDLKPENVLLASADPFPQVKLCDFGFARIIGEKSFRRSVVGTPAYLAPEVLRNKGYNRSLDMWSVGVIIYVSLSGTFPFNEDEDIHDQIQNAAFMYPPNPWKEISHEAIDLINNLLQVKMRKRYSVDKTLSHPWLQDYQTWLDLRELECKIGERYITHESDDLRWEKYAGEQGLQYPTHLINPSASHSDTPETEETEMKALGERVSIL
Sequence of Tyrosine-protein kinase ITK/TSK (Homo sapiens) (Q08881 whole entry): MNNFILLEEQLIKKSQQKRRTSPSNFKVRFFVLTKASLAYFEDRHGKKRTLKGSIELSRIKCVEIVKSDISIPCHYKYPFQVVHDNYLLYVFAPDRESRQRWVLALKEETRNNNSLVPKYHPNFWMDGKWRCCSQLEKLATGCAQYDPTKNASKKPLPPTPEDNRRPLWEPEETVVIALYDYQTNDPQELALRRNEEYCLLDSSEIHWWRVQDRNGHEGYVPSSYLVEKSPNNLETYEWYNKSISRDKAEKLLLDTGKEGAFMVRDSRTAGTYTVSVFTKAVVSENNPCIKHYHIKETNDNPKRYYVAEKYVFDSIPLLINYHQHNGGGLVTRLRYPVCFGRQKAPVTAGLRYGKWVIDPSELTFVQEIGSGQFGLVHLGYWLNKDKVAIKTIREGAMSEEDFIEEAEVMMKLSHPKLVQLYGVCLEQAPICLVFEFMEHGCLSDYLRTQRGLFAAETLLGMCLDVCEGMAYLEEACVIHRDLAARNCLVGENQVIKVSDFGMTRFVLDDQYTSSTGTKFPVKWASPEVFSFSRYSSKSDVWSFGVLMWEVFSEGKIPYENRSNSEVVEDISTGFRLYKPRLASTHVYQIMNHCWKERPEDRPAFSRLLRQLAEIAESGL
Sequence of Receptor-type tyrosine-protein kinase FLT3 (Homo sapiens), P36888 [UNDEFINED MUTATION] (P36888 whole entry, looked up, stated change not applied): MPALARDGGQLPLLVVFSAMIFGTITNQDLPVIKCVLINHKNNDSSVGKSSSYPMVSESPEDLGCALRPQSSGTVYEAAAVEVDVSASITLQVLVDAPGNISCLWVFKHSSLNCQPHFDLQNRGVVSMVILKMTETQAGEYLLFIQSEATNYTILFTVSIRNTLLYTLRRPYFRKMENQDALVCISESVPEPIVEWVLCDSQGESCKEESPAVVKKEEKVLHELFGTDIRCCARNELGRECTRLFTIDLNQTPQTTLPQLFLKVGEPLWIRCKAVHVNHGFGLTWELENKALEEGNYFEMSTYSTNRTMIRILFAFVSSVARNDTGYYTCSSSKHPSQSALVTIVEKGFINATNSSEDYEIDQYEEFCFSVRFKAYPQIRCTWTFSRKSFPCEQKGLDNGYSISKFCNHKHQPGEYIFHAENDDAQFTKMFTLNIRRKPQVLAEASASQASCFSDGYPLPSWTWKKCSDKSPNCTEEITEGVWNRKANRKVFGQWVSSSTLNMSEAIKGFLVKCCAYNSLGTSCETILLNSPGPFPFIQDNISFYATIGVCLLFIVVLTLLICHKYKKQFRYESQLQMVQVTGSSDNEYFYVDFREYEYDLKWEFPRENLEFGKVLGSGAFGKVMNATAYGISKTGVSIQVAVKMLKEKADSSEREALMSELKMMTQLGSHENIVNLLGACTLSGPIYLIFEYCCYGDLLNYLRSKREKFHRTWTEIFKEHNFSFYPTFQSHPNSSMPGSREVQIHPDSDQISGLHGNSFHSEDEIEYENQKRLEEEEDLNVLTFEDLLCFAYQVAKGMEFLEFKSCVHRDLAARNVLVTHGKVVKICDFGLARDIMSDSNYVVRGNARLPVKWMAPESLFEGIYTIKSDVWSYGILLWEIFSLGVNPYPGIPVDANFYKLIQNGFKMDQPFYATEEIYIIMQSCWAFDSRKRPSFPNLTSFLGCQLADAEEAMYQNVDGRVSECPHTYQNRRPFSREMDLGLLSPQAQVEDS
Sequence of Cyclin-dependent kinase-like 1 (Homo sapiens) (Q00532 whole entry, the tested form may be a part): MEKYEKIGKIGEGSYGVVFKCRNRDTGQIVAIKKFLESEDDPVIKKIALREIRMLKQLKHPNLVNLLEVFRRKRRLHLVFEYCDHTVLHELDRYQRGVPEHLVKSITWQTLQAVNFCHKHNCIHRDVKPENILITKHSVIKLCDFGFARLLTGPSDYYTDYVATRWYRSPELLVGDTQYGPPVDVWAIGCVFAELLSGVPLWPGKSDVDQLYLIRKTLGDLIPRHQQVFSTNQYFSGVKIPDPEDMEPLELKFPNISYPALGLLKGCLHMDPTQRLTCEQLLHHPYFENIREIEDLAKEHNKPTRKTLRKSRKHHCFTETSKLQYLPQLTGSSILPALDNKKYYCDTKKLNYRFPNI
Sequence of Cyclin-dependent kinase 14 (Homo sapiens) (O94921 whole entry): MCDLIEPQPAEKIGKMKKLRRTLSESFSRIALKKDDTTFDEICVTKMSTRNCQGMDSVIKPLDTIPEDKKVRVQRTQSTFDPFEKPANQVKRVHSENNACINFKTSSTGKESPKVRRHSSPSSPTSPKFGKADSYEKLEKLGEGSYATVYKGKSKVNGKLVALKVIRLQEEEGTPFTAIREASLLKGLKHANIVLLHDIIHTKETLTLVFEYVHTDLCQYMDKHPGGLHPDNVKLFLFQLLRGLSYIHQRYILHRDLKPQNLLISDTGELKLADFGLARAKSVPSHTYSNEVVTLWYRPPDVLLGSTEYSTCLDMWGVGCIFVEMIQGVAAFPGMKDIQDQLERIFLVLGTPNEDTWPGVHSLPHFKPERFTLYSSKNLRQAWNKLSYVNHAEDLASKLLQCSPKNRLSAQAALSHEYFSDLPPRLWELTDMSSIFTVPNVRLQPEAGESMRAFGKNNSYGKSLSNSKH
Sequence of Serine/threonine-protein kinase PknB (Mycobacterium tuberculosis) (P9WI81 whole entry): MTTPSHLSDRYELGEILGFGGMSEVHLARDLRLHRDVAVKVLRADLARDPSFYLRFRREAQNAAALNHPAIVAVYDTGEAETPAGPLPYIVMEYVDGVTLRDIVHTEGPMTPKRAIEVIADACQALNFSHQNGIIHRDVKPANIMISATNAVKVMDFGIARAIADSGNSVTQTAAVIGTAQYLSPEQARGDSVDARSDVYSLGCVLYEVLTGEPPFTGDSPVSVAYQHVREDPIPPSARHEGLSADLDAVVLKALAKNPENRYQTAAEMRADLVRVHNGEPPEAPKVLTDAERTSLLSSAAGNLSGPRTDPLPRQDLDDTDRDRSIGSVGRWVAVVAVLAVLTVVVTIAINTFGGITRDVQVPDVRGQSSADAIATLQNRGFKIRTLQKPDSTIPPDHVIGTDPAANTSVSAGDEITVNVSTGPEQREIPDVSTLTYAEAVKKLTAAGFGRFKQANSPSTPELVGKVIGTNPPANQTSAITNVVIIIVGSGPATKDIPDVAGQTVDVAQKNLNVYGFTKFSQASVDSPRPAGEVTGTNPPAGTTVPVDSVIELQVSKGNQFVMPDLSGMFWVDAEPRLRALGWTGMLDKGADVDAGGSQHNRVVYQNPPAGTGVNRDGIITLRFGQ
Sequence of Serine/threonine-protein kinase Sgk2 (Homo sapiens) (Q9HBY8 whole entry): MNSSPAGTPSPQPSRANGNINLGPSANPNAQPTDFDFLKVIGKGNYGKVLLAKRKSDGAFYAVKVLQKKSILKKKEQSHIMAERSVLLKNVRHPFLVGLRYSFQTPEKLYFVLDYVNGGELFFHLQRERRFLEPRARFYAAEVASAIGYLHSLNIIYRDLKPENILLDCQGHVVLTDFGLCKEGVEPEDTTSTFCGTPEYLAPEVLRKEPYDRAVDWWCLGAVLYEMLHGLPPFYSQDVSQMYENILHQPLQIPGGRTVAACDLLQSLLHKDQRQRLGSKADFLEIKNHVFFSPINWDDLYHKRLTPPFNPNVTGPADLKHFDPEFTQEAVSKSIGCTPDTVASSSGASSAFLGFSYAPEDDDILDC

With `CN(C)C(=O)c1ccc(N2CCCN(c3ccnc4sc(C(N)=O)c(N)c34)CC2)cc1` the Activity [1] was 99% and 87%, the Activity [2] was 96% and 100% and the Activity [3] was 95% and 75%. For the same molecule, the Activity [4] was 88% and 87%, the Activity [5] was 100% and the Activity [6] was 95% and 92%. For the same molecule, the Activity [7] was 100% and 88%, the Activity [8] was 94% and 80% and the Activity [9] was 96% and 92%. The Activity [10] was 81% and 97%, the Activity [11] was 100% and 95% and the Activity [12] was 99% and 100%. For the same molecule, the Activity [13] was 88% and 92%, the Activity [14] was 92% and 100% and the Activity [15] was 100%. For the same molecule, the Activity [16] was 73% and 88%, the Activity [17] was 25% and 12% and the Activity [18] was 100% and 90%. The Activity [19] was 100% and 81%, the Activity [20] was 56% and 78% and the Activity [21] was 95% and 89%. For the same molecule, the Activity [22] was 99% and 100%, the Activity [23] was 82% and 99% and the Activity [24] was 100% and 97%. The Activity [25] was 94% and 82%, the Activity [26] was 100% and the Activity [27] was 100% and 99%. The Activity [28] was “Active”, the Activity [29] was 100% and 92% and the Activity [30] was 99% and 77%.
